What was measured:
[1] = test system: hNT-PF cells; experiment: Alternative pathway D synthesis; type: cell-based, human
Procedure: (§1) Alternative Pathway: To determine the amount of D synthesized by the alternative pathway cells were treated as previously described (15). In brief, cells were washed and oligodendrocytes and astrocytes were incubated with increasing concentrations of FeSO4 in serum free media, with and without SU 10603 (10 mM); neurons were incubated in serum free media containing 5 mM P plus FeSO4, with and without 10 mM SU 10603. After two hours, cells and media were homogenized and extracted as described above. Extracts were run on C18 TLC plates (Whatman, Clifton, N.J.) with a mobile phase of 95% methanol (v/v); radiolabeled standards for P, progesterone, and D were run on each plate, and appropriate steroid fractions were collected for each sample. TLC fractions were extracted with 2 ml diethyl ether (Fluka, New York) and evaporated. TLC extracts were assayed by specific radioimmunoassay (RIA). In separate experiments, steroids eluted from TLC were further identified by HPLC, RIA and Gas Chromatography-Mass Spectrometry (data not shown).
(§2) RIA using antibodies specific for each steroid (ICN Pharmaceuticals, Costa Mesa, Calif. Mesa) was used to measure P, progesterone and D levels. The data were analyzed using the IBM-PC RIA Data Reduction Program (version 4.1) from Jaffe and Associates (Silver Spring, Md.). Levels of β-amyloid species in AD and control brain samples were analyzed using 4G8 (Senetex PLC, Napa, Calif.), a monoclonal antibody to β-amyloid peptide that recognizes amino acids 17-24. Samples in 0.25 M sucrose buffer were run on 4-20% precast gradient gels (Novex, San Diego, Calif.). Samples were transferred to nitrocellulose membranes and incubated in primary antibody for 1 hour at room temperature at a dilution of 1:2000. Membranes were incubated in secondary antibody (1:1000) for 1-1.5 hours at room temperature and blots were visualized using ECL reagents (Amersham Pharmacia Biotech, Pisquataway, N.J.). Blots were exposed to X-OMAT film.

[2] = test system: human brain cells; experiment: D formation with SU 10603; type: cell-based; conditions: all human brain cells examined
Procedure: as §1

[3] = test system: cell lines used; experiment: P levels with SU 10603 alone; type: cell-based, human; conditions: any of the cell lines used, data not shown
[4] = test system: KG-1-C and MGM-3 cells; experiment: De novo steroid synthesis from 3H-mevalonactone; type: cell-based, human; conditions: 5 mM SU 10603, KG-1-C and MGM-3 cells, radiolabeled D
Procedure: De Novo Steroid Synthesis: All steroid synthesis experiments were performed with the cells at 60-80% confluency. In order to determine the ability of the cells to synthesize steroids de novo, cells were incubated for two hours at 37 C. and 6% CO2, with specific steroidogenic enzyme inhibitors as previously described (50). In brief, endogenous cholesterol synthesis was blocked by incubating cells with 20 mM Mevastatin in serum-free media (Sigma, St. Louis, Mo.) for 1 hour. 10 mM Trilostane and 5 mM SU 10603 were then added. After 30 minutes, […] ^3H-mevalonactone (33 Ci/mmol, DuPont NEN, Boston, Mass.) and 10 mM cold mevalonactone (Sigma, St. Louis, Mo.) were added. Thirty minutes later, media and cells were combined and homogenized on ice for 20 sec. Homogenates were extracted twice with 4 ml of ether:ethyl acetate (1:1, v/v, Fluka, New York, and EM Science, Gibbstown, N.J.) and evaporated. Extracts were reconstituted in 100% methanol and separated on a Beckman System Gold HPLC system, using a 126NM Solvent Module, 166NM Detector and a Beckman ultrasphere XL 3-mm Spherical 80 A pore column (Beckman, Fullerton, Calif.), eluted on a methanol gradient. Fractions were collected each minute and counted by liquid scintillation spectrometry (EG&G Wallac, Gaithersburg, Md.) to determine production of radiolabeled steroids. […]

[5] = test system: brain samples from AD and Control Patients; experiment: FeSO4 treatment of brain homogenates, P and D by RIA after HPLC; design: species or system human
Procedure: (§3) Tissue Samples: For brain samples from Alzheimer's patients and control patients, samples were treated as previously described (17). In brief, aliquots of homogenates were incubated with a final concentration of 30 mM (brain) or 10 mM (serum and CSF) FeSO4 at 37° C. for 2 hours. After 2 hours, samples were extracted and purified as described for the endogenous levels, and assayed by specific radioimmunoassay.
as §2

[6] = test system: serum from AD and control patients; experiment: FeSO4 treatment of serum, DHEA by RIA; design: species or system human
Procedure: as §3
Serum and CSF Levels of DHEA: Serum was obtained from 11 patients, 5 with AD and 6 age-matched controls. Serum samples were split and treated with and without 10 mM FeSO4. Serum and CSF samples were extracted as described for the brain tissue samples, and purified by HPLC. DHEA levels were measured by specific radioimmunoassay.

[7] = test system: KG-1-C cells; experiment: Alternative pathway D synthesis; type: cell-based, human; conditions: increasing concentrations of FeSO4, two hours
Procedure: as §1, §2

[8] = test system: MGM-1 cells; experiment: Alternative pathway D synthesis; type: cell-based, human; conditions: increasing concentrations of FeSO4, two hours
Procedure: as §1, §2

[9] = test system: MGM-3 cells; experiment: Alternative pathway D synthesis; type: cell-based, human; conditions: increasing concentrations of FeSO4, two hours
Procedure: as §1, §2

[10] = test system: NHA cells; experiment: Alternative pathway D synthesis; type: cell-based, human; conditions: FeSO4, two hours, only seen at the highest dose
Procedure: as §1, §2

[11] = test system: MGM-1 cells; experiment: ROS measurement by 2,7-DCF fluorescence; type: cell-based, human
Procedure: β-Amyloid Regulation of the Alternative Pathway: MGM-1 cells were plated on 96 well (˜5,000 cells/well, for ROS measurements) or 24 well (˜15,000 cells/well, for D measurements) plates (Corning Costar, Acton, Mass.). At the same time, 1 mg Ab (Ab(1-42), AnaSpec Inc., San Jose, Calif.) was dissolved in 0.5 ml serum-free media and incubated at 4 C. for aggregation. 24 hours later, cells were incubated in DMEM with 10% fetal bovine serum and […] and 10 mM Vitamin E (Sigma, St. Louis, Mo.). Control samples were incubated in DMEM with 10% FBS. Cells were incubated at 37 C. and 6% CO2 for at least 12 hours and processed for ROS generation (see below) or D synthesis as described above for the alternative experiments.
(§4) Treatment media was removed and the cells were washed with PBS. The fluorescent probe 2,7-dichlorofluorescin diacetate (2,7-DCF, Molecular Probes, Inc., Eugene, Oreg.) was used to measure levels of oxidative stress (48). Cells were incubated with […] 2,7-DCF, fluorescence was measured at 485 nm/535 nm using the Victor^2 Multilabel Counter (EG&G Wallac, Gaithersburg, Md.) and values of cellular fluorescence were obtained.

[12] = test system: NHA cells; experiment: ROS measurement by 2,7-DCF fluorescence; type: cell-based, human; conditions: all concentrations of FeSO4 tested
Procedure: as §4

[13] = test system: MGM-1 cells; experiment: β-Amyloid regulation of the alternative pathway, D levels; type: cell-based, human
Procedure: as §1, with “In separate experiments, steroids eluted from TLC were further identified by HPLC, RIA and Gas Chromatography-Mass Spectrometry (data not shown).” left out
RIA using antibodies specific for each steroid (ICN Pharmaceuticals, Costa Mesa, Calif. Mesa) was used to measure P, progesterone and D levels. The data were analyzed using the IBM-PC RIA Data Reduction Program (version 4.1) from Jaffe and Associates (Silver Spring, Md.). Levels of β-amyloid species in AD and control brain samples were analyzed using 4G8 (Senetex PLC, Napa, Calif.), a monoclonal antibody to β-amyloid peptide that recognizes amino acids 17-24. […]

[14] = test system: Human glioma cells; experiment: Vitamin E treatment, ROS and D levels; type: cell-based; conditions: 10 mM Vitamin E, at least twelve hours, data not shown
Procedure: as §1, with “In separate experiments, steroids eluted from TLC were further identified by HPLC, RIA and Gas Chromatography-Mass Spectrometry (data not shown).” left out
Treatment media was removed and the cells were washed with PBS. […] Cells were incubated with […] 2,7-DCF, fluorescence was measured at 485 nm/535 nm using the Victor^2 Multilabel Counter (EG&G Wallac, Gaithersburg, Md.) and values of cellular fluorescence were obtained.
We hypothesized that high endogenous levels of ROS might be responsible for the de novo D formation in KG-1-C and MGM-3 cells. […] We measured ROS and D levels in these cells as described in the Experimental Procedures. […]

[15] = test system: oligodendrocytes or astrocytes; experiment: D production after addition of P; type: cell-based, human; conditions: addition of 5 μM P, data not shown
[16] = 30 mM FeSO4, frontal cortex, AD patients
[17] = 30 mM FeSO4, frontal cortex, control patients (C)
[18] = 30 mM FeSO4, hippocampus, AD patients
[19] = 30 mM FeSO4, hippocampus, control patients (C)
[20] = 30 mM FeSO4, hypothalamus, AD patients
[21] = 30 mM FeSO4, hypothalamus, control patients (C)

In the case of `O=C1c2cc(Cl)ccc2CCC1c1cccnc1` (centres unmarked) [SU 10603], the “effect on D levels” value ([1]; SU 10603 treatment) is reported as “not affected”, the “inhibition of D formation” value [2] is reported as “did not inhibit” and the “effect on P levels” value [3] is reported as “no effect”. The “blocking endogenous D production” value [4] was “not effective”.
For `O=S(=O)([O-])[O-].[Fe+2]` [FeSO4], the “D (pg/mg protein)” value [5, 16] was 219.3 pg/mg protein, the “P (pg/mg protein)” value [5, 16] was 10485.5 pg/mg protein and the “D (pg/mg protein)” value [5, 17] was 70.0 pg/mg protein. The “P (pg/mg protein)” value [5, 17] was 7339.8 pg/mg protein, the “D (pg/mg protein)” value [5, 18] was 241.7 pg/mg protein and the “P (pg/mg protein)” value [5, 18] was 11584.0 pg/mg protein. For the same molecule, the “D (pg/mg protein)” value [5, 19] was 128.3 pg/mg protein, the “P (pg/mg protein)” value [5, 19] was 8529.3 pg/mg protein and the “D (pg/mg protein)” value [5, 20] was 180.8 pg/mg protein. For the same molecule, the “P (pg/mg protein)” value [5, 20] was 6640.3 pg/mg protein, the “D (pg/mg protein)” value [5, 21] was 61.4 pg/mg protein and the “P (pg/mg protein)” value [5, 21] was 7707.2 pg/mg protein. The “effect on D levels” value ([6]; 10 mM FeSO4, AD serum) was “little effect”, the “increase in D levels” value ([6]; 10 mM FeSO4, control serum) was 1.5-3 fold and the “effect on D levels” value [7] was “did not significantly affect”. The “D synthesis via the alternative pathway” value [8] was “has the ability to make D via the alternative pathway”, the “effect on D levels” value [9] was “did not significantly affect” and the “effect on D formation” value [10] was “significant effect”. The “effect on D levels” value ([1]; increasing concentrations of FeSO4 plus 5 mM P) was “not affected”, the “ROS levels above untreated cells” value ([11]; all concentrations of FeSO4 tested, MGM-1) was “significant increase” and the “ROS levels above untreated cells” value [12] was “significant increase”.
Vitamin E was tested, and the “effect on Aβ-induced increase in ROS” value ([11]; 10 mM Vitamin E with 50 mM Aβ, MGM-1, p=0.054) was “partially blocked”, the “effect on Aβ-induced increase in D levels” value ([13]; 10 mM Vitamin E with 50 mM Aβ, MGM-1, p<0.05 versus Ab) was “blocked” and the “D levels compared to untreated cells” value [14] was “lowered”. For the same molecule, the “ROS levels compared to untreated cells” value [14] was “lowered”.
In the case of “Aβ: β-amyloid peptide Ab(1-42), AnaSpec Inc., aggregated; a component of Alzheimer's disease plaques”, the “2,7-DCF fluorescence (ROS) versus control levels” value ([11]; 50 mM Aβ, MGM-1, p<0.01) is reported as “significant increase” and the “D levels versus control” value ([13]; 50 mM Aβ, MGM-1, p<0.01) is reported as “increased D levels significantly over control”.
`CC(=O)[C@H]1CC[C@H]2[C@@H]3CC=C4C[C@@H](O)CC[C@]4(C)[C@H]3CC[C@]12C` [P, pregnenolone] was tested, and the D production [15] was “did not result in increased D production”.

Reference: US20030213746A1, “Neurosteroids as markers for alzheimer's disease” (priority 2003, published 2003)
